Data taken from US10414811B2, “Protease-resistant lipidated GLP-1 analogs” (MEDIMMUNE LIMITED, priority 2015, dated 2019).
Read-outs that look alike come from different tables or passages of the source. Numbered stars: 1 amine (or outer) side, 2 acyl side, 3 side chain; on linkers, the order of the positions; unused ones are H or OH. Square brackets hold non-standard residues; d marks the D form. Side chains are listed from the residue outwards. Peptide text beside a SMILES is read from it. * marks the point of attachment. γGlu = O=C(O)[C@H](CCC(=O)[*:2])N[*:1]; Palmitoyl = CCCCCCCCCCCCCCCC(=O)*; αMeF = C[C@](N)(Cc1ccccc1)C(=O)O; αMeK = C[C@](N)(CCCCN)C(=O)O; αMeS = C[C@](N)(CO)C(=O)O; Aib = CC(C)(N)C(=O)O

Legend:
Format in all cases: cell-based
[1] = molecular target: T1, human GLP-1 receptor (GLP-1R) (Homo sapiens, UniProt P43220); test: cAMP assay, human GLP-1R cells
T1 construct: expressed in transfected cells
Outline: (§1)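 Peptide-stimulated cAMP measured by two-step HTRF after a 30 min room-temperature incubation with receptor-expressing cells (hGLP-1R, hGIPR at 1×10^5 cells/ml; hGCGR at 2×10^5 cells/ml). Duplicate dilutions; EC50 from 4-parameter logistic fit of % Delta F.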

[2] = molecular target: T2, human glucagon receptor (GCGR) (Homo sapiens, UniProt P47871); test: cAMP assay, human GCGR cells; conditions: cAMP assay
T2 construct: expressed in transfected cells
Outline: as §1

[3] = molecular target: T3, human glucose-dependent insulinotropic peptide receptor (GIPR) (Homo sapiens, UniProt P48546); test: cAMP assay, human GIPR cells; conditions: cAMP assay
T3 construct: expressed in transfected cells
T3 sequence (P48546 22-466): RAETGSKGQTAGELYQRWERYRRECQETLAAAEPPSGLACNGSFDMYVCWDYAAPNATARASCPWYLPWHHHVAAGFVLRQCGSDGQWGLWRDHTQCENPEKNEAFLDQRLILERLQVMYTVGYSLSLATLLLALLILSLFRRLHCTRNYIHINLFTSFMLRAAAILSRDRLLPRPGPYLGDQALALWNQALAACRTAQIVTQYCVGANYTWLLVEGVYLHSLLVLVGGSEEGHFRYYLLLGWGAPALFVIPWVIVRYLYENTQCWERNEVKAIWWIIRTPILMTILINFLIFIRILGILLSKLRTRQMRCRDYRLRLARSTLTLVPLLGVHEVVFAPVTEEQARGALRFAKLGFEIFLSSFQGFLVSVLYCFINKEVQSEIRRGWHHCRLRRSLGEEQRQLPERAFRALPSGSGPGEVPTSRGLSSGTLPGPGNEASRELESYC
Outline: as §1

[4] = cAMP assay, first determination (n1), read-out: Primary assay EC50 GLP-1R n1
[5] = cAMP assay, second determination (n2), read-out: Primary assay EC50 GLP-1R n2
[6] = mean of n1 and n2, read-out: Mean pM GLP-1R
[7] = first determination (n1), read-out: Primary assay EC50 Gluc-R (n1)
[8] = second determination (n2), read-out: Primary assay EC50 Gluc-R (n2)
[9] = first determination (n1), read-out: Primary assay EC50 GIP-R (n1)
[10] = second determination (n2), read-out: Primary assay EC50 GIP-R (n2)

T1 sequence (P43220 24-463): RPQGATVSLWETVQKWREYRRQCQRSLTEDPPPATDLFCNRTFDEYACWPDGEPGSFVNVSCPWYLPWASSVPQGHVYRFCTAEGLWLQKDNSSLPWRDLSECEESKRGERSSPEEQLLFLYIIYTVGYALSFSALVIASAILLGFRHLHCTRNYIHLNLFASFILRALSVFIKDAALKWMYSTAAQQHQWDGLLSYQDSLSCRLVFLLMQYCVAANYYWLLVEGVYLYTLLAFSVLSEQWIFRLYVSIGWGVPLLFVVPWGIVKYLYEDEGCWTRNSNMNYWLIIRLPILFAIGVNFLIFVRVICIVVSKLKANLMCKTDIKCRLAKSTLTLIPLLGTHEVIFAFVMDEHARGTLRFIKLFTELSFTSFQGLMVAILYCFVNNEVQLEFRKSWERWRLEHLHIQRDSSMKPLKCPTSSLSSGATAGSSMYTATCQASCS
T2 sequence (P47871 26-477): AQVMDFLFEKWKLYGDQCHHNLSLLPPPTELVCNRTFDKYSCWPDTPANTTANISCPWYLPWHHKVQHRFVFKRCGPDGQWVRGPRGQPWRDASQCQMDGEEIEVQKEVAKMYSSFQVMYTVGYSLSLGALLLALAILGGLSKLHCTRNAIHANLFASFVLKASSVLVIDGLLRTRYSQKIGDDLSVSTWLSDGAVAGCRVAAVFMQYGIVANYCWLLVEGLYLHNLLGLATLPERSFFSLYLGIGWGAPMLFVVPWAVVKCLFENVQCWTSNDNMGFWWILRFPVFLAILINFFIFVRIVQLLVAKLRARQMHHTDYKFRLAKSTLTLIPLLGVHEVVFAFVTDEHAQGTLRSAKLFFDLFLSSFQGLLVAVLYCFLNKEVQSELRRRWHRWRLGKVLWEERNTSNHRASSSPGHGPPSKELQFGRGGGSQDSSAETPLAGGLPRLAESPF

For `CC[C@H](C)[C@H](NC(=O)[C@](C)(Cc1ccccc1)NC(=O)[C@H](CCC(=O)O)NC(=O)[C@](C)(CCCCN)NC(=O)[C@H](C)NC(=O)[C@H](C)NC(=O)[C@H](CCC(=O)O)NC(=O)CNC(=O)[C@H](CCC(=O)O)NC(=O)[C@H](CC(C)C)NC(=O)[C@](C)(Cc1ccccc1)NC(=O)[C@H](CO)NC(=O)[C@](C)(CO)NC(=O)[C@@H](NC(=O)[C@H](CC(=O)O)NC(=O)[C@H](CC(=O)O)NC(=O)[C@@H](NC(=O)[C@](C)(Cc1ccccc1)NC(=O)[C@H](CO)NC(=O)CNC(=O)[C@H](CCC(=O)O)NC(=O)C(C)(C)NC(=O)[C@@H](N)Cc1c[nH]cn1)[C@@H](C)O)C(C)C)C(=O)N[C@@H](C)C(=O)N[C@@](C)(Cc1ccccc1)C(=O)N[C@H](C(=O)N[C@H](C(=O)N[C@@](C)(CCCCN)C(=O)NCC(=O)NCC(N)=O)C(C)C)C(C)C` [compound 27] (H-H[Aib]EGS[αMeF]TDDV[αMeS]S[αMeF]LEGEAA[αMeK]E[αMeF]IA[αMeF]VV[αMeK]GG-NH2; N-terminus assumed), the EC50 [1, 4] was 420 pM, the EC50 [1, 5] was 480 pM and the EC50 [1, 6] was 446 pM. The EC50 [2, 7] was ≥ 100 nM, the EC50 [2, 8] was 40 nM and the EC50 [3, 9] was ≥ 100 nM. The EC50 [3, 10] was ≥ 100 nM.

In the case of `CC[C@H](C)[C@H](NC(=O)[C@](C)(Cc1ccccc1)NC(=O)[C@H](CCC(=O)O)NC(=O)[C@](C)(CCCCN)NC(=O)[C@H](C)NC(=O)[C@H](C)NC(=O)[C@H](CCC(=O)O)NC(=O)CNC(=O)[C@H](CCC(=O)O)NC(=O)[C@H](CC(C)C)NC(=O)[C@](C)(Cc1ccccc1)NC(=O)[C@H](CO)NC(=O)[C@](C)(CO)NC(=O)[C@@H](NC(=O)[C@H](CC(=O)O)NC(=O)[C@@H](NC(=O)[C@@H](NC(=O)[C@](C)(Cc1ccccc1)NC(=O)[C@H](CO)NC(=O)CNC(=O)[C@H](CCC(=O)O)NC(=O)C(C)(C)NC(=O)[C@@H](N)Cc1c[nH]cn1)[C@@H](C)O)C(C)C)C(C)C)C(=O)N[C@@H](C)C(=O)N[C@@](C)(Cc1ccccc1)C(=O)N[C@H](C(=O)N[C@H](C(=O)N[C@@](C)(CCCCN)C(=O)NCC(=O)NCC(N)=O)C(C)C)C(C)C` [compound 30] (H-H[Aib]EGS[αMeF]TVDV[αMeS]S[αMeF]LEGEAA[αMeK]E[αMeF]IA[αMeF]VV[αMeK]GG-NH2; N-terminus assumed), the EC50 [1, 4] is reported as 80000 pM, the EC50 [1, 5] is reported as 97000 pM and the EC50 [1, 6] is reported as 88600 pM. The EC50 [2, 7] was ≥ 100 nM, the EC50 [2, 8] was ≥ 100 nM and the EC50 [3, 9] was ≥ 100 nM. The EC50 [3, 10] was ≥ 100 nM.

In the case of `CCCCCCCCCCCCCCCC(=O)N[C@@H](CCC(=O)NCCCC[C@H](NC(=O)CNC(=O)CNC(=O)[C@](C)(CCCCN)NC(=O)[C@@H](NC(=O)[C@@H](NC(=O)[C@](C)(Cc1ccccc1)NC(=O)[C@H](C)NC(=O)[C@@H](NC(=O)[C@](C)(Cc1ccccc1)NC(=O)[C@H](CCC(=O)O)NC(=O)[C@](C)(CCCCN)NC(=O)[C@H](C)NC(=O)[C@H](C)NC(=O)[C@H](CCC(=O)O)NC(=O)CNC(=O)[C@H](CCC(=O)O)NC(=O)[C@H](CC(C)C)NC(=O)[C@](C)(Cc1ccccc1)NC(=O)[C@H](CO)NC(=O)[C@](C)(CO)NC(=O)[C@@H](NC(=O)[C@H](CC(=O)O)NC(=O)[C@H](CO)NC(=O)[C@@H](NC(=O)[C@](C)(Cc1ccccc1)NC(=O)[C@H](CO)NC(=O)CNC(=O)[C@H](CCC(=O)O)NC(=O)C(C)(C)NC(=O)[C@@H](N)Cc1c[nH]cn1)[C@@H](C)O)C(C)C)[C@@H](C)CC)C(C)C)C(C)C)C(N)=O)C(=O)O` [compound 32] (H-H[Aib]EGS[αMeF]TSDV[αMeS]S[αMeF]LEGEAA[αMeK]E[αMeF]IA[αMeF]VV[αMeK]GGK([γGlu-Palmitoyl])-NH2), the EC50 [1, 4] is reported as 36 pM, the EC50 [1, 5] is reported as 18 pM and the EC50 [1, 6] is reported as 27 pM. The EC50 [2, 7] was ≥ 90 nM, the EC50 [2, 8] was ≥ 90 nM and the EC50 [3, 9] was ≥ 90 nM. For the same molecule, the EC50 [3, 10] was ≥ 90 nM.

`CCCCCCCCCCCCCCCC(=O)N[C@@H](CCC(=O)NCCCC[C@H](NC(=O)[C@H](C)NC(=O)[C@H](C)NC(=O)[C@H](CCC(=O)O)NC(=O)CNC(=O)[C@H](CCC(=O)O)NC(=O)[C@H](CC(C)C)NC(=O)[C@](C)(Cc1ccccc1)NC(=O)[C@H](CO)NC(=O)[C@](C)(CO)NC(=O)[C@@H](NC(=O)[C@H](CC(=O)O)NC(=O)[C@H](CO)NC(=O)[C@@H](NC(=O)[C@](C)(Cc1ccccc1)NC(=O)[C@H](CO)NC(=O)CNC(=O)[C@H](CCC(=O)O)NC(=O)C(C)(C)NC(=O)[C@@H](N)Cc1c[nH]cn1)[C@@H](C)O)C(C)C)C(=O)N[C@@H](CCC(=O)O)C(=O)N[C@@](C)(Cc1ccccc1)C(=O)N[C@H](C(=O)N[C@@H](C)C(=O)N[C@@](C)(Cc1ccccc1)C(=O)N[C@H](C(=O)N[C@H](C(=O)N[C@@](C)(CCCCN)C(=O)NCC(=O)NCC(N)=O)C(C)C)C(C)C)[C@@H](C)CC)C(=O)O` [compound 34] showed an EC50 [1, 4] of 39 pM, an EC50 [1, 5] of 48 pM and an EC50 [1, 6] of 43 pM. For the same molecule, the EC50 [2, 7] was ≥ 93 nM, the EC50 [2, 8] was ≥ 93 nM and the EC50 [3, 9] was ≥ 93 nM. The EC50 [3, 10] was ≥ 93 nM.

For `CCCCCCCCCCCCCCCC(=O)N[C@@H](CCC(=O)NCCCC[C@H](NC(=O)CNC(=O)CNC(=O)[C@](C)(CCCCN)NC(=O)[C@@H](NC(=O)[C@@H](NC(=O)[C@](C)(Cc1ccccc1)NC(=O)[C@H](C)NC(=O)[C@@H](NC(=O)[C@](C)(Cc1ccccc1)NC(=O)[C@H](CCC(=O)O)NC(=O)[C@](C)(CCCCN)NC(=O)[C@H](C)NC(=O)[C@H](C)NC(=O)[C@H](CCC(=O)O)NC(=O)CNC(=O)[C@H](CCC(=O)O)NC(=O)[C@H](CC(C)C)NC(=O)[C@](C)(Cc1ccccc1)NC(=O)[C@H](CO)NC(=O)[C@](C)(CO)NC(=O)[C@@H](NC(=O)[C@H](CC(=O)O)NC(=O)[C@H](CC(=O)O)NC(=O)[C@@H](NC(=O)[C@](C)(Cc1ccccc1)NC(=O)[C@H](CO)NC(=O)CNC(=O)[C@H](CCC(=O)O)NC(=O)C(C)(C)NC(=O)[C@@H](N)Cc1c[nH]cn1)[C@@H](C)O)C(C)C)[C@@H](C)CC)C(C)C)C(C)C)C(N)=O)C(=O)O` [compound 35] (H-H[Aib]EGS[αMeF]TDDV[αMeS]S[αMeF]LEGEAA[αMeK]E[αMeF]IA[αMeF]VV[αMeK]GGK([γGlu-Palmitoyl])-NH2; N-terminus assumed), the EC50 [1, 4] was 4900 pM, the EC50 [1, 5] was 1700 pM and the EC50 [1, 6] was 3260 pM. The EC50 [2, 7] was ≥ 89 nM, the EC50 [2, 8] was ≥ 27 nM and the EC50 [3, 9] was ≥ 89 nM. The EC50 [3, 10] was ≥ 27 nM.

Molecule `CCCCCCCCCCCCCCCC(=O)N[C@@H](CCC(=O)NCCCC[C@H](NC(=O)[C@H](C)NC(=O)[C@H](C)NC(=O)[C@H](CCC(=O)O)NC(=O)CNC(=O)[C@H](CCC(=O)O)NC(=O)[C@H](CC(C)C)NC(=O)[C@](C)(Cc1ccccc1)NC(=O)[C@H](CO)NC(=O)[C@](C)(CO)NC(=O)[C@@H](NC(=O)[C@H](CC(=O)O)NC(=O)[C@H](CC(=O)O)NC(=O)[C@@H](NC(=O)[C@](C)(Cc1ccccc1)NC(=O)[C@H](CO)NC(=O)CNC(=O)[C@H](CCC(=O)O)NC(=O)C(C)(C)NC(=O)[C@@H](N)Cc1c[nH]cn1)[C@@H](C)O)C(C)C)C(=O)N[C@@H](CCC(=O)O)C(=O)N[C@@](C)(Cc1ccccc1)C(=O)N[C@H](C(=O)N[C@@H](C)C(=O)N[C@@](C)(Cc1ccccc1)C(=O)N[C@H](C(=O)N[C@H](C(=O)N[C@@](C)(CCCCN)C(=O)NCC(=O)NCC(N)=O)C(C)C)C(C)C)[C@@H](C)CC)C(=O)O` [compound 37] (H-H[Aib]EGS[αMeF]TDDV[αMeS]S[αMeF]LEGEAAK([γGlu-Palmitoyl])E[αMeF]IA[αMeF]VV[αMeK]GG-NH2) has an EC50 [1, 4] of 7300 pM, an EC50 [1, 5] of 1700 pM and an EC50 [1, 6] of 4500 pM. The EC50 [2, 7] was ≥ 92 nM, the EC50 [2, 8] was ≥ 28 nM and the EC50 [3, 9] was ≥ 92 nM. For the same molecule, the EC50 [3, 10] was ≥ 28 nM.

With `CC[C@H](C)[C@H](NC(=O)[C@](C)(Cc1ccccc1)NC(=O)[C@H](CCC(=O)O)NC(=O)[C@H](CCCCN)NC(=O)[C@H](C)NC(=O)[C@H](C)NC(=O)[C@H](CCC(=O)O)NC(=O)CNC(=O)[C@H](CCC(=O)O)NC(=O)[C@H](CC(C)C)NC(=O)[C@](C)(Cc1ccccc1)NC(=O)[C@H](CO)NC(=O)[C@H](CO)NC(=O)[C@@H](NC(=O)[C@H](CC(=O)O)NC(=O)[C@H](CO)NC(=O)[C@@H](NC(=O)[C@](C)(Cc1ccccc1)NC(=O)[C@H](CO)NC(=O)CNC(=O)[C@H](CCC(=O)O)NC(=O)C(C)(C)NC(=O)[C@@H](N)Cc1c[nH]cn1)[C@@H](C)O)C(C)C)C(=O)N[C@@H](C)C(=O)N[C@@](C)(Cc1ccccc1)C(=O)N[C@H](C(=O)N[C@H](C(=O)N[C@@H](CCCCN)C(=O)NCC(=O)NCC(=O)N[C@@H](CCCCNC(=O)COCCOCCNC(=O)COCCOCCNC(=O)CC[C@H](NC(=O)CCCCCCCCCCCCCCCCC(=O)O)C(=O)O)C(N)=O)C(C)C)C(C)C` [compound 38] the EC50 [1, 4] was 62 pM, the EC50 [1, 5] was 82 pM and the EC50 [1, 6] was 72 pM. For the same molecule, the EC50 [2, 7] was 25 nM, the EC50 [2, 8] was 25 nM and the EC50 [3, 9] was 25 nM. The EC50 [3, 10] was 25 nM.
